Laboratory results as given in paper PMC9157009, “Protein proximity networks and functional evaluation of the casein kinase 1 gamma family reveal unique roles for CK1γ3 in WNT signaling” (The Journal of Biological Chemistry, 2022).
Values joined by “and” are separate entries in the source; they are usually repeats but may differ in a detail not shown here. Equal entries are not always repeated.

Key:
CSNK1A1L = CSNK1A1L (Homo sapiens, UniProt Q8N752); assay: scanMAX binding assay, CSNK1A1L; details: Percent of Control; legend and method: 1 μM; read-out: CSNK1A1L PoC @ 1 µM
Source text: (§1) As described previously, this commercial assay platform screens against 403 WT human kinases in binding assays and provides PoC values ([73]).

CK1γ1 [1] = target: T1, CK1γ1 (Homo sapiens, UniProt Q9HCP0); assay: scanMAX binding assay, CK1γ1; details: Percent of Control; legend and method: 1 μM; read-out: CK1γ1 PoC @ 1 µM
T1 construct: purchased Eurofins
Source text: as §1

GSK3β = target: T2, GSK3β (Homo sapiens, UniProt P49841); assay: scanMAX binding assay, GSK3β; details: Percent of Control; legend and method: 1 μM
T2 construct: purchased Eurofins DiscoverX Corporation
Source text: as §1

CSNK1D = CSNK1D (Homo sapiens, UniProt P48730); assay: scanMAX binding assay, CSNK1D; details: Percent of Control; legend and method: 1 μM; read-out: CSNK1D PoC @ 1 µM
Source text: as §1

[2] = system: BAR reporter (β-catenin-dependent WNT signaling); assay: BAR luciferase transcriptional reporter assay in HEK293T B/R cells; type: cell-based, human; details: HEK293T B/R cells transfected 14 h, 0.1, 1.0 or 10 μM FP1 for 18 h
Procedure: All luciferase reporter assays were performed as previously described ([15], [43]). […] In both loss-of-function and gain-of-function experiments, treatments (WNT3A CM or drug) were added 18 h before harvesting cells. Conditions were plated in triplicate, and Renilla normalized values were averaged across triplicates to yield the data presented and standard error. Each assay was repeated in biological triplicate, unless otherwise stated. Firefly luciferase and the Renilla control were detected using the Promega Dual-Luciferase Reporter Assay System per the manufacturer’s protocol (Promega; catalog no.: E1960). Plates were read on the Victor Nivo plate reader (PerkinElmer).

CK1γ3 = target: T3, CK1γ3 (Homo sapiens, UniProt Q9Y6M4); assay: scanMAX binding assay, CK1γ3; details: Percent of Control; legend and method: 1 μM; read-out: CK1γ3 PoC @ 1 µM
T3 construct: purchased Eurofins
Source text: as §1

DYRK1A = target: T4, DYRK1A (Homo sapiens, UniProt Q13627); assay: scanMAX binding assay, DYRK1A; details: Percent of Control; legend and method: 1 μM; read-out: DYRK1A PoC @ 1mM
T4 construct: purchased Eurofins DiscoverX Corporation
Source text: as §1

CLK2 = target: T5, CLK2 (Homo sapiens, UniProt P49760); assay: scanMAX binding assay, CLK2; details: Percent of Control; legend and method: 1 μM; read-out: CLK2 PoC @ 1 µM
T5 construct: purchased Eurofins DiscoverX Corporation (scanMAX)
Source text: as §1

CSNK1A1 = CSNK1A1 (Homo sapiens, UniProt P48729); assay: scanMAX binding assay, CSNK1A1; details: Percent of Control; legend and method: 1 μM; read-out: CSNK1A1 PoC @ 1 µM
Source text: as §1

CK1γ1 [3] = target: T1, CK1γ1; assay: Eurofins kinase enzymatic radiometric assay, CK1γ1; type: biochemical; details: Km = ATP, 9-pt curve in duplicate
Source text: Details related to the substrate used, protein constructs, controls, and assay protocol for each kinase assay are included on the Eurofins website: https://www.eurofinsdiscoveryservices.com/.

TAK1 = target: T6, TAK1 (Homo sapiens, UniProt O43318); assay: scanMAX binding assay, TAK1; details: Percent of Control; legend and method: 1 μM; read-out: TAK1 PoC @ 1 µM
T6 construct: purchased Eurofins DiscoverX Corporation (scanMAX)
Source text: as §1

LRP6 = assay: W. blot of LRP6 phosphorylation after WNT3A in RKO cells; type: cell-based, human; details: RKO cells pretreated 1 h
Procedure: Standard W. blot techniques were utilized and performed as previously described ([15], [43]). Briefly, cells were lysed in RIPA lysis buffer, flash frozen on dry ice, and then cleared at high speed for 10 min at maximum speed. Protein concentration was determined by a bicinchoninic acid assay following kit specifications. Samples were balanced, and NuPAGE 4× SDS loading buffer (Thermo Fisher Scientific; catalog no.: NP0007) containing DTT was added to each sample and heated for 10 min at 70 °C. Samples were run on a NuPAGE 4 to 12% Bis–Tris Protein Gel (Thermo Fisher Scientific; catalog no.: NP0321) and then transferred to a nitrocellulose membrane. The membrane was then blocked and incubated overnight with primary antibody at 4 °C with rotation, washed with Tris-buffered saline with Tween-20, incubated with secondary antibody, washed with Tris-buffered saline with Tween-20, and imaged. Images were taken using a LiCOR Odyssey CLx imager and quantified with LiCOR software (LiCOR Biosciences). All antibodies were used at a concentration of 1:1000, with the exception of loading controls, which were used at 1:10,000. […]

T1 sequence (Q9HCP0 whole entry): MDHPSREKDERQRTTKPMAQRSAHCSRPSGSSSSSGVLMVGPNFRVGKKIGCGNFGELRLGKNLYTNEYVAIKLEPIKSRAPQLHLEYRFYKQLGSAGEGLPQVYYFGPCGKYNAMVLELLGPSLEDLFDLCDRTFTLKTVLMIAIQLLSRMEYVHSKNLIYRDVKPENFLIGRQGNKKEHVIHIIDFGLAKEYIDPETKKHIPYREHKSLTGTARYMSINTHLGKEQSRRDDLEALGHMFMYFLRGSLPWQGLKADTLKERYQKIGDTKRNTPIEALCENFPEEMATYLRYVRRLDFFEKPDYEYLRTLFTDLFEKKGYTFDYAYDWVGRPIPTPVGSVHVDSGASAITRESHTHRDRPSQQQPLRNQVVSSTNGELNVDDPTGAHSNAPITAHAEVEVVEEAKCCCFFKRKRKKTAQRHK
T3 sequence (Q9Y6M4 whole entry): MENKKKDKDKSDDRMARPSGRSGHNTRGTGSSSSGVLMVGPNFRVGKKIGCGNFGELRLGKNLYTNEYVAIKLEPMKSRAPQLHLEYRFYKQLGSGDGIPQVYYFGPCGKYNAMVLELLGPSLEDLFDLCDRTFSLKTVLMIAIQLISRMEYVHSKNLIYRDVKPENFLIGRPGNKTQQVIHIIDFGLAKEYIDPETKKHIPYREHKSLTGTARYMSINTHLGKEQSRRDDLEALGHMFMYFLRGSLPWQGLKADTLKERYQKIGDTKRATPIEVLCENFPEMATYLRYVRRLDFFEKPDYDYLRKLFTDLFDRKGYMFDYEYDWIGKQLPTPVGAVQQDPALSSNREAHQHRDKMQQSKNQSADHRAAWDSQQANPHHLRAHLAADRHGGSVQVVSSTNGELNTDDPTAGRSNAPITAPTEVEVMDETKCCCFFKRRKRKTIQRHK
T2 sequence (P49841 whole entry): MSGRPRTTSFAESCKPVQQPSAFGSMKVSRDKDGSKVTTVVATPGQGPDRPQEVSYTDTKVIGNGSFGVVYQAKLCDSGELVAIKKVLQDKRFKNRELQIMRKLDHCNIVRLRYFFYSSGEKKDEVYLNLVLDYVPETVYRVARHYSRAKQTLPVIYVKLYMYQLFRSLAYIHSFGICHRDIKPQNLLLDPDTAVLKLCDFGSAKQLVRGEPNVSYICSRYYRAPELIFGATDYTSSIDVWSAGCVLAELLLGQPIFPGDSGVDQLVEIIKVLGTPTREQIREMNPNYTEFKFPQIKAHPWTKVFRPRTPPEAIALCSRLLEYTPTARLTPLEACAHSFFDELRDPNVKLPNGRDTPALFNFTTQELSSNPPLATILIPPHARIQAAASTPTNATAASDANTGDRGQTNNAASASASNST
Chain of CSNK1A1L (Q8N752 whole entry): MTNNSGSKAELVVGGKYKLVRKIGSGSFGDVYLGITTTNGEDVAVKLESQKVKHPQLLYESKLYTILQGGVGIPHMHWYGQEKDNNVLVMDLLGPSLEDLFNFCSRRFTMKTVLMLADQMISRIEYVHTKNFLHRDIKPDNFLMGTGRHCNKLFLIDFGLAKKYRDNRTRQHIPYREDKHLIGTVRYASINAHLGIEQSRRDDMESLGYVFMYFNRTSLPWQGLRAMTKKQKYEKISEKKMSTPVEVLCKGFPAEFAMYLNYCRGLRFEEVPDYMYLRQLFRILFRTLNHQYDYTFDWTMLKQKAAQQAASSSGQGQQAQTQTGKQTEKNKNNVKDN
Chain of CSNK1D (P48730 whole entry): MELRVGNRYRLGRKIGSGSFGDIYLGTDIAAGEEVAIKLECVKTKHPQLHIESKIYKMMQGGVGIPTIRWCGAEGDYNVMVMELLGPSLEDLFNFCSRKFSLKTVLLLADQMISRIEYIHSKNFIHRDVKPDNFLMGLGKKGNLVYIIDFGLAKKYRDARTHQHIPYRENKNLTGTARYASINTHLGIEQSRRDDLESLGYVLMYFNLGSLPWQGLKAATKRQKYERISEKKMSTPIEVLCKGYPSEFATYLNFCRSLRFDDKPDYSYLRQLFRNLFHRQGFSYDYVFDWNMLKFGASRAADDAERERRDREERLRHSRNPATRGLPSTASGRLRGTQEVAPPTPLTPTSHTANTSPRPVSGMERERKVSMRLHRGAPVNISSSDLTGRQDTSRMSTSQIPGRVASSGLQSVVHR
Chain of CSNK1A1 (P48729 whole entry): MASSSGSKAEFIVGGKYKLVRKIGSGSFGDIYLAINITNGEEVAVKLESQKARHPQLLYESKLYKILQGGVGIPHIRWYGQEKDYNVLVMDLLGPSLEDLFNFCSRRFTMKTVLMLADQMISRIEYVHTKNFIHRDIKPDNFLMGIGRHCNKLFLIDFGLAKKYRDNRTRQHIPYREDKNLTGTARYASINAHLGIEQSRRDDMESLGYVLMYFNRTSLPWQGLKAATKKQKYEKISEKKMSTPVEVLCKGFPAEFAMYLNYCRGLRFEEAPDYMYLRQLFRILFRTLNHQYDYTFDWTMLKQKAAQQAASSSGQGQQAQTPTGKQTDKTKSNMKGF
T6 sequence (O43318 whole entry): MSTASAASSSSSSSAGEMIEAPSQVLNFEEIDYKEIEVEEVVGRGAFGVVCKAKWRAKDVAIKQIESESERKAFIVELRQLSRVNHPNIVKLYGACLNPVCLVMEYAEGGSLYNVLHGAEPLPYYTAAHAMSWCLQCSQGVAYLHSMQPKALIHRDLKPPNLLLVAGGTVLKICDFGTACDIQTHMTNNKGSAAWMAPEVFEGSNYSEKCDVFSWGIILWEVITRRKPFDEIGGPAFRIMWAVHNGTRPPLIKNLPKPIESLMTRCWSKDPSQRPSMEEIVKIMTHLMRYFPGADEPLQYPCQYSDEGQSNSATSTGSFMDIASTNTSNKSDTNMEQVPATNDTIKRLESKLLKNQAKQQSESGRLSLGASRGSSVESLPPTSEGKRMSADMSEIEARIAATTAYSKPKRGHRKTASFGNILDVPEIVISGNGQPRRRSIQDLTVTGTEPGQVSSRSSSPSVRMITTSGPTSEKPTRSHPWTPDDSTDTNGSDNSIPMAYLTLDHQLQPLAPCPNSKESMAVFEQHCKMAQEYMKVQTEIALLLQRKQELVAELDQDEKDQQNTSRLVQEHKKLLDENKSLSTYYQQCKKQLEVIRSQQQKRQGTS
T5 sequence (P49760 whole entry): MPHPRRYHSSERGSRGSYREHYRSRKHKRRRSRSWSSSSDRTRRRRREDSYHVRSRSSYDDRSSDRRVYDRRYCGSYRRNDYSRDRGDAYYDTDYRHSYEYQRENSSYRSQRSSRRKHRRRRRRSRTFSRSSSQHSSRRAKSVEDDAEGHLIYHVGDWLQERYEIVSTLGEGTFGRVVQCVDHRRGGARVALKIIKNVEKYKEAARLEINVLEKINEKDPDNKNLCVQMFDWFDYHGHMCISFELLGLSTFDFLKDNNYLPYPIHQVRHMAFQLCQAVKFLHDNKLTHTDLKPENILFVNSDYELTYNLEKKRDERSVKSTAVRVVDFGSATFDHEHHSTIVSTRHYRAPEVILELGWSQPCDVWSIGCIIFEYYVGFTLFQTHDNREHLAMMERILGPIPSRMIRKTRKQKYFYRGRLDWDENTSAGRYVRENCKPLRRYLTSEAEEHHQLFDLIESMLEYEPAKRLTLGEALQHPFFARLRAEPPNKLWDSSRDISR

## COc1cnc(COc2ccc(F)c(F)c2)cc1-c1cc2c([nH]1)CCNC2=O [FP1-24-2, 2-(2-((3,4-difluorophenoxy)methyl)-5-methoxypyridin-4-yl)-1,5,6,7-tetrahydro-4H-pyrrolo[3,2-c]pyridin-4-one]
CSNK1A1L
  remaining binding at 1 µM: 5.9%
CK1γ1 [1]
  remaining binding at 1 µM: 8.5%
GSK3β
  GSK3β PoC @ 1 µM: did not inhibit
CSNK1D
  remaining binding at 1 µM: 0%
[2]
  BAR activity with CK1γ3 overexpression: decrease
CK1γ3
  remaining binding at 1 µM: 0.9%
DYRK1A
  remaining binding at 1000 µM: 0.1%
CLK2
  remaining binding at 1 µM: 7.2%
CSNK1A1
  remaining binding at 1 µM: 3.1%
CK1γ1 [3]
  IC50: < 15 nM and 5.29 nM
TAK1
  remaining binding at 1 µM: 6.9%
LRP6; WNT3A 30 or 60 min, compared with dimethyl sulfoxide control
  phosphorylation of LRP6 at site S1490: diminished
LRP6; then exposed to WNT3A 30 or 60 min
  LRP6 phosphorylation at T1479: did not increase
